# Assay results from patent US20220226334A1, “ANTIBODY CONJUGATE AND APPLICATION OF PHARMACEUTICAL COMPOSITION THEREOF” (SHANGHAI FUDAN-ZHANGJIANG BIO-PHARMACEUTICAL CO., LTD., priority 2019, published 2022).
# Like-named read-outs stand apart in the source and are kept apart here. Where a SMILES comes first, the peptide text is derived from it. [ ]: non-standard residue; d: D form. The star is where a group is joined. Dolaproine = CO[C@@H]([C@@H]1CCCN1)[C@@H](C)C(=O)O; Dil = CC[C@H](C)[C@H](NC)[C@@H](CC(=O)O)OC; X1 = C[C@@H](N*)[C@@H](O)c1ccccc1; NMeV = CN[C@H](C(=O)O)C(C)C
# What was measured:
# Karpas299 cells = experiment: In vitro killing of Karpas299 cells (AlamarBlue), single drugs and combinations; assay type: cell-based, human
# Experimental: (§1) After the sample was added, it was cultured in 5% CO2 at 37° C. for 77±2 hours, stained with AlamarBlue fluorescent dye, cultured for 19±2 hours, and read at 530 nm (excitation)/590 nm (emission). The IC50 value of the semi-inhibitory concentration of each sample was calculated by fitting with the computer's four-parameter equation software.
# (§2) Cell proliferation method was used to investigate the killing effect of drugs on cells.
# [1] = test system: Hodgkin lymphoma cells L428; experiment: In vitro killing of L428 cells (AlamarBlue), single drugs, MDR1 inhibitor, combinations
# Experimental: Cell proliferation method was used to investigate the killing effect of drugs on cells. L428 cells were inoculated in 96-well cell culture plates at 5×10^4 cell/mL, i.e., 5000 cells per well. Doxorubicin was diluted to 259.5 ng/mL, 129.8 ng/mL, 64.88 ng/mL, 32.44 ng/mL, 21.63 ng/mL, 14.42 ng/mL, 9.611 ng/mL, 3.844 ng/mL, 1.538 ng/mL using cell culture medium, for a total of 9 concentrations. Serial dilutions of Doxorubicin were added to the culture plates of the seeded plates and incubated for 77±2 hours at 37° C. in a 5% CO2 incubator. The samples were stained with AlamarBlue fluorescent dye and incubated at 37° C. in a 5% CO2 incubator for 19±2 hours. Readings were performed at wavelength of 50 nm (excitation)/590 nm (emission). The IC50 value of Doxorubicin was calculated by fitting it with four-parameter equation.
# Calcusyn, the software for calculating the combination index, was chosen to calculate the CI of the combination index at different killing levels,
# [2] = test system: Hodgkin lymphoma cells L540; experiment: In vitro killing of L540 cells, single drugs and combinations; assay type: cell-based
# Experimental: as §1, §2
# [3] = biological target: MDR1 (multidrug resistance gene 1 product, CD243, ABC B1) on the cell surface (UniProt P08183); experiment: flow cytometry, PE-labelled UIC2 on L540 cells (cells other than L428 did not express MDR1); PBS as negative control
# [4] = biological target: MDR1 (multidrug resistance gene 1 product, CD243, ABC B1) on the cell surface (UniProt P08183); experiment: flow cytometry, PE-labelled UIC2 on HH cells (cells other than L428 did not express MDR1); PBS as negative control
# [5] = biological target: MDR1 (multidrug resistance gene 1 product, CD243, ABC B1) on the cell surface (UniProt P08183); experiment: flow cytometry, PE-labelled UIC2 on L428 cells (text: L428 specifically expressed MDR1 on the surface); PBS as negative control
# [6] = biological target: MDR1 (multidrug resistance gene 1 product, CD243, ABC B1) on the cell surface (UniProt P08183); experiment: flow cytometry, PE-labelled UIC2 on Karpas 299 cells (cells other than L428 did not express MDR1); PBS as negative control
# [7] = test system: Hodgkin lymphoma cells L428; conditions: known in the art; cited from earlier work
# [8] = Homo sapiens, KARPAS-299, Karpas299 cells, Table 13, read-out: IC50 of single drug
# [9] = Homo sapiens, L-428, read-out: IC50 of single drug
# [10] = Homo sapiens, L-540, L540, Tables 8 and 13, read-out: IC50 of single drug
Molecule,IC50 (Karpas299 cells; [8]) [µM],"IC50 [1, 9] [µM]","IC50 [2, 10] [µM]",further results
C[C@]12C=CC(=O)C=C1CC[C@@H]1[C@@H]2C(=O)C[C@@]2(C)[C@H]1CC[C@]2(O)C(=O)CO [Prednisone],187,113,98.5,–
CN(C)/N=N/c1[nH]cnc1C(N)=O [Dacarbazine],–,178,31.3,–
"CD243 (ABC B1) monoclonal antibody (UIC 2), PE (ThermoFisher)",–,–,–,MDR1 binding ratio [3]: 1.2; MDR1 binding ratio [4]: 2.6; MDR1 binding ratio [5]: 16.1; MDR1 binding ratio [6]: 1.2
Bleomycin,–,–,–,IC50 (Karpas299 cells; read-out: IC50 of single drug): 1.68 µM; IC50 ([1]; read-out: IC50 of single drug): 2.04 µM; IC50 ([2]; read-out: IC50 of single drug): 3.2 µM
O=P1(N(CCCl)CCCl)NCCCO1 (stereo not shown) [Cyclophosphamide],–,590,–,"IC50 (Karpas299 cells; Homo sapiens, KARPAS-299, read-out: IC50 of single drug): 385 µM; IC50 ([2]; Homo sapiens, L-540, read-out: IC50 of single drug): 121 µM"
CC[C@]1(O)C[C@H]2CN(CCc3c([nH]c4ccccc34)[C@@](C(=O)OC)(c3cc4c(cc3OC)N(C=O)[C@H]3[C@@](O)(C(=O)OC)[C@H](OC(C)=O)[C@]5(CC)C=CCN6CC[C@]43[C@@H]65)C2)C1 [Vincristine],0.0185,0.0281,0.000772,–
CNNCc1ccc(C(=O)NC(C)C)cc1 [Procarbazine],26.9,500,24.7,–
CC[C@H](C)[C@@H]([C@@H](CC(=O)N1CCC[C@H]1[C@H](OC)[C@@H](C)C(=O)N[C@H](C)[C@@H](O)c1ccccc1)OC)N(C)C(=O)[C@@H](NC(=O)[C@@H](NC)C(C)C)C(C)C [MMAE] (H-[NMeV]V[Dil][Dolaproine]-X1),–,–,–,Sensitivity of L428 to the small molecule (in words) [7]: sensitive
COc1cccc2c1C(=O)c1c(O)c3c(c(O)c1C2=O)C[C@@](O)(C(=O)CO)C[C@@H]3O[C@H]1C[C@H](N)[C@H](O)[C@H](C)O1 [Doxorubicin],0.0405,0.0278,0.0585,–
COc1cc([C@@H]2c3cc4c(cc3[C@@H](O[C@@H]3O[C@@H]5CO[C@@H](C)O[C@H]5[C@H](O)[C@H]3O)[C@H]3COC(=O)[C@H]23)OCO4)cc(OC)c1O [Etoposide],64.1,54.2,30.1,–
